Measured values from patent publication US20090215640A1, “METHODS FOR IDENTIFYING LIGANDS FOR STEM CELLS AND CELLS DERIVED THEREFROM” (priority 2005, published 2009).

What was measured:
hESCs = test: Binding and internalization of mouse selected peptide phage into hESCs; type: cell-based, human; details: subpopulation of hESCs
[1] = target: T1, CRIP2 (also known as heart LIM protein (Hlp)) (Mus musculus, UniProt Q9DCT8); details: Zhang et al., Circulation 2005; cited from earlier work
T1 sequence (Q9DCT8 1-208): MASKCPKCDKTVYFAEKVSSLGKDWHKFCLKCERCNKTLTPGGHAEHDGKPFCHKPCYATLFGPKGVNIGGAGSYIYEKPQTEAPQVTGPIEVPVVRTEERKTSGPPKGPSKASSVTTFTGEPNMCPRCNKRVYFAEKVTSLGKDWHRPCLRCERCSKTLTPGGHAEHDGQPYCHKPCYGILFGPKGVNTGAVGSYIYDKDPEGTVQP

[2] = tested on: adult heart capillaries and endocardium; details: Zhang et al., Circulation 2005; cited from earlier work

In the case of CRPPR*, the “Binding and internalization into hESCs” value (hESCs) is listed as “binds and internalizes into a subpopulation of hESCs”, the “Binding to CRIP2” value [1] is listed as “binds to CRIP2” and the “Binding to adult heart capillaries and endocardium” value [2] is listed as “known to bind to adult heart capillaries and endocardium”.
